Data on four molecules can be found in patent publication US12173088B2, “Anti-microbial peptides” (priority 2018, dated 2024).

One data set deals with P. aeruginosa PAO1. Format: cell-based, Pseudomonas aeruginosa. To be noted: PAO1. In short, it runs like this: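 Broth microdilution in tryptic soy broth: log-phase cultures (OD600 ≈0.5) diluted to OD600 0.001, given two-fold peptide dilutions, incubated overnight at 37° C. Growth read at 630 nm.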
The next data set can be described thus: Liver microsomal assay. The data set is classed as in vitro ADME. To be noted: in one hour. Background: Microsomes from liver hold many membrane-bound enzymes, among them those of drug oxidation.
A further data set in a line: Hemolytic assay. The data set is classed as cell-based, human. Particulars: human. In short, it runs like this:
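Washed hRBCs (2% v/v) exposed to peptide for 1 h at 37 °C, then centrifuged and hemoglobin in supernatant read at 545 nm. Lysis normalized to Triton X-100 (2% or 1%; 100%) and PBS (0%); HL50 is the peptide concentration giving 50% lysis, and CSI is HL50/MIC.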

For the next data set, the system named is S. aureus USA300. The data set is classed as in vivo, Staphylococcus aureus. The protocol: Female C57BL/6 mice (6 weeks old) were purchased from Charles River. After environment adaptation, mice were induced neutropenic by administering two doses of cyclophosphamide on day 1 (150 mg/kg) and Day 4 (100 mg/kg). This cyclophosphamide administration was skipped for experiments using non-neutropenic mice (i.e., normal mice). On day 5, mice were infected with S. aureus USA300 LAC (˜2×10^6 CFU per mouse) via intraperitoneal injection (i.p.). For the treatment groups, mice were i.p. treated 2 hours post infection with peptides at a single dose of 5 mg/kg. Both positive and negative controls were included. At the end of the experiments, all animals were sacrificed according to institutional guidelines. Organs, including spleen, lung, kidney, and liver, were harvested, weighed, placed in sterile PBS and stored on ice. Harvested animal organs were subsequently homogenized using homogenizer (Omni, Kennesaw, GA). Proper dilutions, especially for untreated control groups, were made to get countable colonies. Blood agar plates were then incubated overnight at 37° C. The bacteria grown on plates were enumerated and plotted using the Graph pad Prism software.
Female C57BL/6 or Balb/c mice (6 weeks old) were purchased from Charles River. The mice were induced neutropenic by administering two doses of cyclophosphamide on day 1 (150 mg/kg) and Day 4 (100 mg/kg). On day 5, mice were infected with S. aureus USA300 (˜2×10^6 CFU per mouse) or K. pneumoniae E406-17 (˜5×10^5 CFU per mouse) via intraperitoneal injection (i.p.). For the treatment groups, mice were i.p. or intravenous (i.v.) treated 2 hours post infection with peptides at a single dose of 5, 10, or 15 mg/kg. Both positive and negative controls are used. At the end of the experiments, all animals were sacrificed according to institutional guidelines. […] The CFU of each mouse was plotted as an individual point and error bars represent the deviation within the experimental group. * p<0.05 ** p<0.01, ***p<0.001 and NS represents no significance (determined by Mann-Whitney test).

The structures appear in SMILES notation. Converted amounts (≈) assume the structure as drawn. Like-named read-outs stand apart in the source and are kept apart here. Peptide text beside a SMILES is read from it. Some results are limits rather than exact numbers.

Regarding `CC(C)C[C@H](NC(=O)[C@H](Cc1c[nH]c2ccccc12)NC(=O)[C@H](Cc1c[nH]c2ccccc12)NC(=O)[C@@H](N)Cc1c[nH]c2ccccc12)C(=O)N[C@@H](CCCNC(=N)N)C(=O)N[C@@H](CCCNC(=N)N)C(=O)N[C@@H](CCCNC(=N)N)C(=O)N[C@@H](Cc1c[nH]c2ccccc12)C(N)=O` [Horine, WWWLRRRW] (H-WWWLRRRW-NH2; N-terminus and C-terminus assumed), the “MIC P. aeruginosa PAO1” value in the data set on P. aeruginosa PAO1 turned out to be 12.5 µM (≈ 16.8 µg/mL). Further, in “Liver microsomal assay”, the “Degradation in liver microsomal assay” value worked out at 5000. For the same molecule, the HC50 at 1 hour in the data set “Hemolytic assay” was > 200 µM.

`CC(C)C[C@H](NC(=O)[C@H](CC(C)C)NC(=O)[C@H](CCCCN)NC(=O)[C@H](CC(C)C)NC(=O)CNC(=O)[C@H](CC(C)C)NC(=O)[C@H](CO)NC(=O)[C@H](CC(C)C)NC(=O)[C@H](CC(C)C)NC(=O)[C@H](CC(C)C)NC(=O)[C@H](CCCCN)NC(=O)[C@H](CC(C)C)NC(=O)CN)C(N)=O` [DFT561, GLKLLLSLGLKLL] (H-GLKLLLSLGLKLL-NH2; N-terminus and C-terminus assumed): the “MIC PA (P. aeruginosa PAO1)” value with P. aeruginosa PAO1 was >25 µM. Also, in the data set on S. aureus USA300 (USA300, in vivo, 5 mg/kg), the Killing entry was “up to 90%”. In addition, the HC50 at 1 h in “Hemolytic assay” (human red blood cells, 2% (v/v)) is > 300 µM.

With `CN[C@H](CC(C)C)C(=O)N[C@H]1C(=O)N[C@@H](CC(N)=O)C(=O)N[C@H]2C(=O)N[C@H]3C(=O)N[C@H](C(=O)N[C@H](C(=O)O)c4cc(O)cc(O)c4-c4cc3ccc4O)[C@H](O)c3ccc(c(Cl)c3)Oc3cc2cc(c3O[C@@H]2O[C@H](CO)[C@@H](O)[C@H](O)[C@H]2O[C@H]2C[C@](C)(N)[C@H](O)[C@H](C)O2)Oc2ccc(cc2Cl)[C@H]1O` [Vancomycin], in the data set on S. aureus USA300 (spleen, lung, kidney, liver, 10 mg/kg, positive control), the CFU decrease is recorded as 1-4 logs.

For the molecule `CC(C)[C@H](NC(=O)[C@H](Cc1c[nH]c2ccccc12)NC(=O)[C@H](Cc1c[nH]c2ccccc12)NC(=O)[C@H](Cc1c[nH]c2ccccc12)NC(=O)[C@H](Cc1c[nH]c2ccccc12)NC(=O)[C@H](CCCNC(=N)N)NC(=O)[C@H](CCCNC(=N)N)NC(=O)[C@@H](N)CCCNC(=N)N)C(N)=O` [Verine, RRRWWWWV] (H-RRRWWWWV-NH2; N-terminus and C-terminus assumed), the “Degradation in liver microsomal assay” value in the data set “Liver microsomal assay” was 5000. In addition, the HC50 at 1 hour in “Hemolytic assay” (2% hRBCs, read-out: LC50) was > 200 µM.
